Earlier results in US20070254070A1, “Encapsulating Plant Extracts Adsorbed and/or Absorbed in Precipitated Silica” (AXISS FRANCE S.A.S., priority 2004, published 2007).

Test system: bacteria

## Cc1ccc(C(C)C)cc1O [carvacrol]
  action on bacteria: bactericidal
